Read-outs that look alike come from different tables or passages of the source.
What was measured:
[1] = molecular target: T1, FKBP-FRB* mcCAR CD19 (Homo sapiens, UniProt P62942); experiment: AP21967 switch-on: surface detection and dose response, CD19 targeting engineered CAR (Fab'2 detection); type: cell-based
T1 construct: expressed in transfected cells; host or cells: T cells, mRNA electroporation

[2] = test system: Daudi CD19 positive; experiment: Flow cytometry-based cytotoxicity assay of FKBP-FRB* mcCAR CD19 T-cells with AP21967; type: cell-based; details: for EC50: Homo sapiens, Daudi, dose response 0, 1, 5, 10, 33, 100 nM
Method: The cytolytic activity of engineered T-cells endowed with the FKBP-FRB* mcCAR CD19 from example 2, was assessed using a flow cytometry-based cytotoxicity assay. In this assay target cells presenting the CAR target antigen (Daudi CD19 positive) are labelled with CellTrace™ CFSE or and control cells with CellTrace™ violet.
The whole cell population was recovered, washed in PBS and labeled with eFluor780 viability marker before being fixed by 2% PFA. Fixed cells were analyzed by flow cytometry to determine their viability. Flow cytometry and data analysis were performed as described in example 1.
The level of targeted cell killing also correlated with the level of CAR detection (FIG. 9).

[3] = test system: MOLM13-Luc tumour cells; experiment: Antitumor activity of inducible CD123 CAR+ T cells with AP21967 in NOG mice injected with MOLM13-Luc; type: in vivo; details: switch-on mcCAR-CD123 T cells IV plus AP21967 3 mg/kg/inj IP twice daily; FIG. 11
Method: The anti-tumor activity of human T-cells expressing a switch-on mcCAR-CD123 as described in Example 1, was assessed in NOG mice intravenously injected with MOLM13-Luc tumour cells.
To establish the MOLM13-Luc cell line, MOLM13 cells (DSMZ ACC 554) have been transduced with a lentivirus encoding the GFP and the firefly luciferase (amsbio LVP438-PBS). The GFP-positive cells have been selected with Neomycin (ref 10131-027, Gibco, Life Technologies, Saint-Aubin, France). MOLM13-Luc cells are grown in suspension at 37° C. in a humidified atmosphere (5% CO2, 95% air) into culture medium RPMI 1640 containing 2.05 mM L-glutamine (ref: BE12-702F, Lonza) supplemented with 15% fetal bovine serum (ref: 3302, Lonza, Verviers, Belgium), 100 U/mL Penicillin and 100 μg/mL Streptomycin (ref: DE17-602E, Lonza). The cells are counted in a hemocytometer and their viability is assessed by 0.25% trypan blue exclusion assay and are passed twice weekly (0.8 millions/mL) in fresh culture medium.
The day of injection to mice, frozen human T-cells transformed with the switch-on mcCAR-CD123 CAR are assessed to be within a range of 1-2.106 live cells per mL. […]
Mice were monitored daily with respect to their body weight measurements, clinical and mortality records, and treatment were recorded on Vivo Manager® database (Biosystemes, Dijon, France).

[4] = molecular target: T2, FKBP-FRB* scCAR (Homo sapiens, UniProt P62942); experiment: AP21967 switch-on scCAR surface detection (Fc-tagged recombinant CD123); type: cell-based; details: FKBP-FRB* domains; FIG. 7
T2 construct: expressed in transfected cells
Text: The CAR extracellular domains (alpha chain) presented in example 2 were used as template to prepare plasmid DNA encoding single chain CARs (scCARs). The CD8 alpha transmembrane domain (SEQ ID NO: 32), the intracytoplasmic signalling region of the ζ-chain of the CD3-T cell receptor (SEQ ID NO: 28) and the signalling domains from co-stimulatory 4-1BB (CD137) (SEQ ID NO:31) were used to complete the CARs. scCARs were assemble by Golden Gate cloning using round of restriction and ligation, according to standard molecular biology procedures, leading to pCLS27572 (FKBP-FRB*) (SEQ ID NO:65), pCLS27603 (FKBP) (SEQ ID NO:66), pCLS27604 (FRB*) (SEQ ID NO:67). The respective amino acid sequences encoded by these constructs are shown in SEQ ID NOs: 68 to 70.
Primary labelling for the detection of the scCARs was performed with Fc-tagged recombinant CD123 (Lake Pharma) in PBS FBS2%, EDTA 2 mM, azide 0.1% for 20 min at 4° C. followed by a two washing steps with PBS FBS2% EDTA 2 mM azide 0.1%. […] Following the extracellular labelling, the cell viability was monitored using the efluor450 or efluor780 (ebioscience) in PBS for 20 min 4° C., followed by a washing step with PBS FBS2% EDTA 2 mM azide 0.1% and fixed in PFA 2%.

[5] = test system: FKBP/FRB-mcCAR and FRB/FKBP-mcCAR constructs; experiment: Rapamycin switch-on: surface detection of mcCAR with FKBP and FRB in the α-chain (flow cytometry); type: cell-based; details: rapamycin 100 nM, 20 h vs no rapamycin
Text: All constructs originated from the pCLS24707 (SEQ ID NO: 38) which encode the α-chain (SEQ ID NO: 39), β-chain (SEQ ID NO: 40) and γ-chain (SEQ ID NO: 41) of the multichain CAR (mcCAR). The sequences coding for the FRB domain (SEQ ID NO: 2) and FKBP domain (SEQ ID NO: 1) were synthetized de novo (GeneCust). The scFV, hinge-transmembrane-intracytoplasmic alpha chain domain, the FRB and the FKBP were further amplified by PCR to generate golden gate assembly compatible fragments (SEQ ID NO: 42 to 45). In addition an FRB-FKBP and an FKBP-FRB fragment were generated (SEQ ID NO: 46 to 47) using a four-EAAAR-linker (SEQ ID NO: 19) or a −GS-4x-EAAAR-linker (SEQ ID NO: 20) and standard molecular biology procedures. […]
All individual chains were amplified by PCR using oligo pairs α-chain-F/α-chain-R, β-chain-F/β-chain-R and γ-chain-F/γ-chain-R (SEQ ID NO: 56 to 61) prior to mRNA synthesis. mRNA encoding the different α-chains, β-chain, γ-chain were in vitro transcribed from the PCR product and polyadenylated using the mMessage mMachine T7 Ultra kit (Life technologies) following the manufacturer's instructions. RNAs were purified with RNeasy columns (Qiagen), eluted in cytoporation medium T and quantified by measuring absorbance at 260 nm using a Nanodrop ND-1000 spectrophotometer. […]

[6] = molecular target: T3, FKBP-FRB* mcCAR (Homo sapiens, UniProt P62942); experiment: Competition between AP21967 and tacrolimus, surface presentation of engineered CAR; type: cell-based; details: AP21967 10 nM fixed, tacrolimus 0-500 nM, 20 hours
T3 construct: expressed in transfected cells; host or cells: T cells, mRNA electroporation
T3 sequence (P62942 with tags, fused parts or gaps): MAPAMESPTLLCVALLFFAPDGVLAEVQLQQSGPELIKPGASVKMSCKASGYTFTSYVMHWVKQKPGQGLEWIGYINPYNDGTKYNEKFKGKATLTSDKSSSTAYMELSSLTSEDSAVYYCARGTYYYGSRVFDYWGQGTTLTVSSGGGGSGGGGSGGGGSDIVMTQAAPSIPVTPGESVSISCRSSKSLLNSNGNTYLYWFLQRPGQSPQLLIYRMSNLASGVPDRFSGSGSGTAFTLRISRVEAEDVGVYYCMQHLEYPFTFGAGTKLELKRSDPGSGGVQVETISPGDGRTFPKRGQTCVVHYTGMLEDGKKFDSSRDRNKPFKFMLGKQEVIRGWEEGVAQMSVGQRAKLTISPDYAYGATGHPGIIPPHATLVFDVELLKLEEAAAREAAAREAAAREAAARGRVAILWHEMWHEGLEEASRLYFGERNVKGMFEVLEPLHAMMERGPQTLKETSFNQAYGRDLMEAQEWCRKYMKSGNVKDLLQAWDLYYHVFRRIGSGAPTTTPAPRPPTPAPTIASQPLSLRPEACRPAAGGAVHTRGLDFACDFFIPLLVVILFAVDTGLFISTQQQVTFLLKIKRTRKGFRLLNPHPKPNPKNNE
T3 sequence (Q01362 with tags, fused parts or gaps partner limits assumed): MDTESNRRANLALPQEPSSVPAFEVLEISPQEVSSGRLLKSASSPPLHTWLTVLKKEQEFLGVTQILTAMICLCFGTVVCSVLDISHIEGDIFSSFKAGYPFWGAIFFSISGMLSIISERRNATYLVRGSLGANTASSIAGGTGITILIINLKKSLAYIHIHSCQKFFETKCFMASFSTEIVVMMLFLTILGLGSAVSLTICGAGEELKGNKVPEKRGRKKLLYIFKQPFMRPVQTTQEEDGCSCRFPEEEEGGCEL
T3 sequence (P30273 with tags, fused parts or gaps partner limits assumed): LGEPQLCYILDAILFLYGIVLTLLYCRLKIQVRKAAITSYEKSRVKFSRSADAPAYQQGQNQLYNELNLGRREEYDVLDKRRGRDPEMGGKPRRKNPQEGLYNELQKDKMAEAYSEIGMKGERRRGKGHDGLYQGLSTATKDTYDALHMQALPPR

T1 sequence (Q01362 with tags, fused parts or gaps partner limits assumed): as the sequence (Q01362 with tags, fused parts or gaps partner limits assumed) above
T1 sequence (P30273 with tags, fused parts or gaps partner limits assumed): as the sequence (P30273 with tags, fused parts or gaps partner limits assumed) above
T2 sequence (P62942 with tags, fused parts or gaps): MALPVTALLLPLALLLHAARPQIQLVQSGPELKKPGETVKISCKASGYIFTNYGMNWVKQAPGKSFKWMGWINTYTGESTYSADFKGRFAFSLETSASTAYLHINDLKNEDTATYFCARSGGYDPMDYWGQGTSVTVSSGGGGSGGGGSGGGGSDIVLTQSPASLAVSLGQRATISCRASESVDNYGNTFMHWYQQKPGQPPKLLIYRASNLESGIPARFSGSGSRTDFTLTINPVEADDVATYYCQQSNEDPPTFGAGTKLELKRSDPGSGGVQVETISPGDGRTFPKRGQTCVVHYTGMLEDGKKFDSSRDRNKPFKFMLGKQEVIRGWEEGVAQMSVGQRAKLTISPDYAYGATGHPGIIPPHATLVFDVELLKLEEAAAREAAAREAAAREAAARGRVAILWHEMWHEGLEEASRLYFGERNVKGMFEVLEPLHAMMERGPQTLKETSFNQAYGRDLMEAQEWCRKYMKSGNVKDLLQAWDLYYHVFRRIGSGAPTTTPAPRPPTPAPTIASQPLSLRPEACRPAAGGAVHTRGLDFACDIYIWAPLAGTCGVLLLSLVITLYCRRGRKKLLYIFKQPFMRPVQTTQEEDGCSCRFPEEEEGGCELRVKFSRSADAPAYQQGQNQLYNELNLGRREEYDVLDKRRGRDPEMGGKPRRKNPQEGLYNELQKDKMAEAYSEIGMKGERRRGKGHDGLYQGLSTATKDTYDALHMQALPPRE

CO[C@H]1[C@@H](O)[C@H](C)C[C@H](C)/C=C/C=C/C=C(\C)[C@@H](c2c[nH]c3c(C)cccc23)C[C@@H]2CC[C@@H](C)[C@@](O)(O2)C(=O)C(=O)N2CCCC[C@H]2C(=O)O[C@H]([C@H](C)C[C@@H]2CC[C@@H](O)[C@H](OC)C2)C[C@H](O)[C@H](C)/C=C(\C)[C@H]1O [AP21967]
surface exposition of mcCAR in presence of AP21967 ([1]; FKBP-FRB* domains in α-chain, FIG. 4): improved surface exposition
concentration of maximum signal induction ([1]; dose response, surface detection): 100 nM
level of target cell killing versus AP21967 dose ([2]; 0, 1, 5, 10, 33, 100 nM, FIG. 5B): correlated
cytolytic activity of CAR T cells in presence of AP21967 ([2]; AP21967 100 nM vs ethanol, E/T 20:1, 5 h, FIG. 5A): improved switched-on cytolytic activity
EC50 ([2]; FIG. 5B, read-out: EC50 of cytolytic capacity (approximate)): ~10 nM
EC50 ([2]; FIG. 5B, read-out: EC50 of cytolytic capacity (value in parentheses)): 12.7 nM
survival of the mice [3]: increased the survival
surface exposition of scCAR in presence of AP21967 [4]: improved surface exposition

CO[C@H]1C[C@@H]2CC[C@@H](C)[C@@](O)(O2)C(=O)C(=O)N2CCCC[C@H]2C(=O)O[C@H]([C@H](C)C[C@@H]2CC[C@@H](O)[C@H](OC)C2)CC(=O)[C@H](C)/C=C(\C)[C@@H](O)[C@@H](OC)C(=O)[C@H](C)C[C@H](C)/C=C/C=C/C=C/1C [rapamycin]
improvement of surface detection considering the MFI [5]: up to 15 fold
improvement of surface detection considering the percentage of positive cell [5]: ≤ 3 fold

C=CC[C@@H]1/C=C(\C)C[C@H](C)C[C@H](OC)[C@H]2O[C@@](O)(C(=O)C(=O)N3CCCC[C@H]3C(=O)O[C@H](/C(C)=C/[C@@H]3CC[C@@H](O)[C@H](OC)C3)[C@H](C)[C@@H](O)CC1=O)[C@H](C)C[C@@H]2OC [tacrolimus]
surface presentation/detection of the engineered CAR with increasing tacrolimus [6]: decreased surface detection
surface presentation/detection of the engineered CAR with increasing tacrolimus ([6]; listed as Tacrolimus): possibility to tune the surface presentation

From US10988542B2, “Chimeric antigen receptors with integrated controllable functions” (CELLECTIS, priority 2015, dated 2021)
